One data set deals with Human GLP-1R (Homo sapiens, UniProt P43220). The data set can be described thus: cAMP level determination in human GLP-1R stably transfected HEK293T cells (HTRF cAMP kit). The format is cell-based. As to conditions: 37°C 30 min. The procedure, abridged: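 Stably transfected HEK293T cells (1 Million/mL) stimulated 30 min at 37°C with compound (top final 2000 nM, 1:3, 11 points, 0.2% DMSO) plus 0.5 mM IBMX. HTRF cAMP read after 2 hr RT; stimulation % normalised to 100 nM GLP-1 and DMSO wells, cAMP from standard curve, EC50 by four-parameter fit.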
In general terms: Cyclic AMP is a second messenger, typically raised through Gs and lowered through Gi signalling.

The nature of data set [1]: Pharmacokinetic analysis of compounds in mouse plasma after oral gavage or intravenous injection. The format is in vivo, Male C57BL/6J mice. As to conditions: for AUC(0-t) at 24 h / Cmax / Tmax / half-life / clearance: mouse plasma; for AUC(0-t) at 24 h / Cmax / Tmax: dose 5 mg/kg single oral gavage; for half-life: table dose 5 mg/kg (oral gavage); for clearance: table dose 5 mg/kg, IV arm was 1 mg/kg; for F: mouse, PO 5 mg/kg versus IV 1 mg/kg. As for the experimental part:
Male C57BL/6J mice, approximately 30 g, 6-9 weeks old, gavage oral administration and intravenous injection: 3 mice per compound, animals from Shanghai Medicilon Inc.
The pharmacokinetic characteristics of the compounds were tested in mice after oral gavage (PO) or intravenous injection (IV) using a standard protocol. The test compounds were prepared as clear solutions with the vehicle: 10% (v/v) DMSO + 10% (v/v) Solutol + 80% (v/v) Saline. Three mice were administered a single oral gavage dose of 5 mg/kg, and blood samples were collected at 0.25, 0.5, 1, 2, 4, 6, 8, and 24 hours post-dose via submandibular vein or other appropriate methods. Each sample collected was approximately 0.03 mL, anticoagulated with sodium heparin, and placed on ice after collection. Additionally, three mice were administered a single intravenous injection of 1 mg/kg of the test compound, and blood samples were collected at 0.083, 0.25, 0.5, 1, 2, 4, 8, and 24 hours post-dose via submandibular vein or other appropriate methods. Each sample collected was approximately 0.03 mL, anticoagulated with sodium heparin, and placed on ice after collection. Plasma was separated by centrifugation within 1 hour (centrifugation conditions: 6800g, 6 minutes, 2-8°C), and the concentration of the compounds of the present invention was analyzed by LC-MS/MS method.
Prior to analysis, all samples were stored at -80°C, and pharmacokinetic parameters were calculated using Phoenix WinNonlin. Table 2: Pharmacokinetic Parameters

Human GLP-1R, sequence (P43220 24-463): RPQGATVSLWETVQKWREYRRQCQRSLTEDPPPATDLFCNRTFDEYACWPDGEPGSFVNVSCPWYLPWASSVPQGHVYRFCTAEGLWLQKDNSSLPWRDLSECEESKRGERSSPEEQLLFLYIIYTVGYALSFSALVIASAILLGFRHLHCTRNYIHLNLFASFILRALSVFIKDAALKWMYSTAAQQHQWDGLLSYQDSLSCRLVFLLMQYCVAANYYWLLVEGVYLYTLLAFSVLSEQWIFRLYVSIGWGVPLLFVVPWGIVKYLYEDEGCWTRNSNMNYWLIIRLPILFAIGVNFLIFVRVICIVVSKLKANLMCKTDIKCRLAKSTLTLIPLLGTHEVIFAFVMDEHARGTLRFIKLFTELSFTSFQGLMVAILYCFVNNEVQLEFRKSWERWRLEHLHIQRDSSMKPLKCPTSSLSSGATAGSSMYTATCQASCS

As to `Cc1cc(-n2nc3c(c2-n2ccn(-c4ccc(C(=O)N(C)C5CC5)c(F)c4F)c2=O)[C@H](C)N(C(=O)c2cc4cc([C@H]5CCOC(C)(C)C5)ccc4n2[C@@]2(c4nc(=O)o[nH]4)C[C@@H]2C)CC3)cc(C)c1F` [Compound 5], a half-maximal response at Human GLP-1R (EC50) required 7.69 nM. In addition, in data set [1], the AUC(0-t) at 24 h amounted to 36700 ng·h/mL, the Cmax stood at 3880 ng/mL, the Tmax was 1.33 h and the half-life was 3.11 h. In data set [1], this molecule gave a clearance of 2.38 mL/min/kg and an F of 105.86%.

In turn, `Cc1cc(-n2nc3c(c2-n2ccn(-c4ccc(C(=O)N(C)C5CC5)c(Cl)c4F)c2=O)[C@H](C)N(C(=O)c2cc4cc([C@H]5CCOC(C)(C)C5)ccc4n2[C@@]2(c4nc(=O)o[nH]4)C[C@@H]2C)CC3)cc(C)c1F` [Compound 7] displayed an EC50 at Human GLP-1R of 6.12 nM. Also, in data set [1], the AUC(0-t) at 24 h is 34700 ng·h/mL, the Cmax turned out to be 3120 ng/mL, the Tmax was 1.33 h and the half-life is 3.41 h. In data set [1], this molecule yielded a clearance of 1.94 mL/min/kg and an F of 81.76%.

In turn, `Cc1cc(-n2nc3c(c2-n2ccn(-c4ccc(C(=O)N(C)C5CC5)c(Cl)c4)c2=O)[C@H](C)N(C(=O)c2cc4cc([C@H]5CCOC(C)(C)C5)ccc4n2[C@@]2(c4nc(=O)o[nH]4)C[C@@H]2C)CC3)cc(C)c1F` [Compound 11] showed an EC50 at Human GLP-1R of 5.03 nM. Besides, in data set [1], the AUC(0-t) at 24 h turned out to be 35200 ng·h/mL, the peak level (Cmax) was 3170 ng/mL, the Tmax was found to be 3 h and the half-life was 4.27 h. In data set [1], the clearance worked out at 2.02 mL/min/kg and the F amounted to 87.27%.

What is called EC50 is the midpoint of the concentration-response curve. The term AUC(0-t) denotes the area under the concentration-time curve up to a stated or last time point. Read a low AUC(0-t) as less exposure. One may read the Cmax as the maximum level reached in the sampled fluid or tissue. The term Tmax denotes the time from dosing to the highest level. In general, half-life refers to how long it takes for the measured level to halve. A higher half-life goes with slow decline.

Source of the values: patent EP4737454A1, “GLP-1 RECEPTOR AGONIST, AND PREPARATION METHOD THEREFOR AND USE THEREOF” (Wayne Biotechnology Co., Ltd., priority 2023, dated 2025).
